In general, inhibition refers to the share of the control response that was lost under treatment. By IC50 is commonly meant the point on the concentration scale where inhibition reaches its midpoint.

Experiment [1] can be described thus: Antioxidant activity assessed as inhibition of DPPH radical scavenging activity by measuring reduction in absorbance at 100 uM by spectrophotometric analysis relative to control. The class given is functional.
For another experiment, the target named is Mushroom tyrosinase (Agaricus bisporus, UniProt O42713+Q00024+C7FF04+C7FF05). The experiment can be described thus: Inhibition of mushroom tyrosinase activity using L-tyrosine as substrate preincubated for 5 mins followed by substrate addition and measured after 20 mins by microplate reader analysis.
Another experiment has as its system Bel-7402. The experiment can be described thus: Cytotoxicity against human Bel-7402 cells. The class given is functional, cell-based.
The next experiment relates to K562. Nature of the experiment: Cytotoxicity against human K562 cells. The class given is functional, cell-based.
In another experiment the test system is SGC-7901. The experiment can be described thus: Cytotoxicity against human SGC-7901 cells. The class given is functional, cell-based.
The next experiment has as its system RAW264.7. Nature of the experiment: Inhibition of NO production in LPS stimulated mouse RAW264.7 cells by Griess reagent based analysis. The class given is functional, cell-based. A general note: The Griess reaction detects nitrite, a stable product of nitric oxide.
Experiment [2] concerns the target T1, Acetylcholinesterase (Homo sapiens, UniProt P22303). Conditions: dose 50.0 mg/ml, time 1.0 hrs.
Another experiment relates to HeLa. Nature of the experiment: Cytotoxicity against human HeLa cells. The class given is functional, cell-based.
Experiment [3] has as its system A549. The experiment can be described thus: Cytotoxicity against human A549 cells. The class given is functional, cell-based.
Experiment [4] addresses T1, Acetylcholinesterase. Nature of the experiment: Inhibition of AChE (unknown origin) by spectrophotometric based Ellman's method. A general note: DTNB colorimetry detects thiols as they appear.
Another experiment concerns Staphylococcus aureus. Nature of the experiment: Antibacterial activity against methicillin-resistant Staphylococcus aureus assessed as inhibition of bacterial growth incubated for 24 hrs by broth microdilution assay. The class given is functional, organism-based.
For experiment [5], the system named is A549. Nature of the experiment: Cytotoxicity against human A549 cells by MTT assay. The class given is functional, cell-based. (In general: Tetrazolium assays rely on reduction of a dye to a coloured formazan, in cell work by metabolically active cells.)
Experiment [6] deals with Nuclear factor NF-kappa-B complex (Homo sapiens) (UniProt Q00653+P19838+Q04206). Nature of the experiment: Inhibition of LPS induced NF-kappaB activation (unknown origin) assessed as relative luciferase activity. The class given is protein-complex assay.
Sequence of Nuclear factor NF-kappa-B complex (Homo sapiens) (P19838 whole entry, looked up): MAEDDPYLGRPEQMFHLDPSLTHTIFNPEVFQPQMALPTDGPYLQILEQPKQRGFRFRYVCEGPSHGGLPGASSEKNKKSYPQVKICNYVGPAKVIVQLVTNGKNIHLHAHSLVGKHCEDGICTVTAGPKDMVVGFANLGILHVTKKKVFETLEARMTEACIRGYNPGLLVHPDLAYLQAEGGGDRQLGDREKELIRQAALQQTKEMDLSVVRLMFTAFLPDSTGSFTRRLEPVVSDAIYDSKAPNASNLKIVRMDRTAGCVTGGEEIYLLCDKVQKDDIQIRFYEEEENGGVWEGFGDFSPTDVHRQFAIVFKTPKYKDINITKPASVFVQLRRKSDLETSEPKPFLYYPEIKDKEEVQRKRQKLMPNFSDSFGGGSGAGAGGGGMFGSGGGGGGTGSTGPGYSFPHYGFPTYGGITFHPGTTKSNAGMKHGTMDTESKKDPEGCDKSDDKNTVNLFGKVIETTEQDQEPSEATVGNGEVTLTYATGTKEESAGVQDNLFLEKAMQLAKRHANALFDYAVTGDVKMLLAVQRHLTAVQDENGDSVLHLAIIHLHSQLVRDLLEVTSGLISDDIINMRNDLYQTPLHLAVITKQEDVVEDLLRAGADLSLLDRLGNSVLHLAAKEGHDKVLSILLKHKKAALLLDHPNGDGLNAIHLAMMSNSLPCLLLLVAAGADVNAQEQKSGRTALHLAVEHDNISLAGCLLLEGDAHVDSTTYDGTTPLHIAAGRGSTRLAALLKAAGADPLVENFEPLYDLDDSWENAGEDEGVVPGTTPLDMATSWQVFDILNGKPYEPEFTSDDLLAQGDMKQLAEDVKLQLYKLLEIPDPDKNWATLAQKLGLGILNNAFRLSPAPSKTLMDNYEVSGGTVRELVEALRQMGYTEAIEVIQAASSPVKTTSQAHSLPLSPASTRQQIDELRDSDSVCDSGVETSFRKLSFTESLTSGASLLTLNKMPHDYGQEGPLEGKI
Sequence of Nuclear factor NF-kappa-B complex (Homo sapiens) (Q00653 whole entry, looked up): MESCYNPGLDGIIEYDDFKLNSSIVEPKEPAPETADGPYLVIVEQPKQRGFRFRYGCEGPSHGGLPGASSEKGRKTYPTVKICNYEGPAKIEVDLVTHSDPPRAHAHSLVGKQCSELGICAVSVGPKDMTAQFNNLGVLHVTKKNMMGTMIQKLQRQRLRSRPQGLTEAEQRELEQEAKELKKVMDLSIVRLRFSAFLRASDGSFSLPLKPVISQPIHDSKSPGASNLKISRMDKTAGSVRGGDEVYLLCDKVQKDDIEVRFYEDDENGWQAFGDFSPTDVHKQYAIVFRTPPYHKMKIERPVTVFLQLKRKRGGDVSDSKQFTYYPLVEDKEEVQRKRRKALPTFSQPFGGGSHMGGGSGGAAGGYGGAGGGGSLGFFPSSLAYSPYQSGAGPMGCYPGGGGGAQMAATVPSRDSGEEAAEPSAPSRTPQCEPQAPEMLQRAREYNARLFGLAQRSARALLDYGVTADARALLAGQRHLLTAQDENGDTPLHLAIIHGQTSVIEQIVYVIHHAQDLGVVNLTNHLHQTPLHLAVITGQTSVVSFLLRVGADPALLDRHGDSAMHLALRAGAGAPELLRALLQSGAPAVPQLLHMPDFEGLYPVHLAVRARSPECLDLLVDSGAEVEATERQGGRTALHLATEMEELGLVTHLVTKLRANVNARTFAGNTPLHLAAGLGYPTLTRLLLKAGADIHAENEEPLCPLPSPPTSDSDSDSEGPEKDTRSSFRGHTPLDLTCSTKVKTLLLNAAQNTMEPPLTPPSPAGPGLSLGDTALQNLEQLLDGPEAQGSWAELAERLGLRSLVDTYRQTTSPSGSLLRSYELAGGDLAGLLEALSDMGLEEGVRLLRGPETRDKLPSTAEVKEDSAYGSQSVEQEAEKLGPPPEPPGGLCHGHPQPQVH
Sequence of Nuclear factor NF-kappa-B complex (Homo sapiens) (Q04206 whole entry, looked up): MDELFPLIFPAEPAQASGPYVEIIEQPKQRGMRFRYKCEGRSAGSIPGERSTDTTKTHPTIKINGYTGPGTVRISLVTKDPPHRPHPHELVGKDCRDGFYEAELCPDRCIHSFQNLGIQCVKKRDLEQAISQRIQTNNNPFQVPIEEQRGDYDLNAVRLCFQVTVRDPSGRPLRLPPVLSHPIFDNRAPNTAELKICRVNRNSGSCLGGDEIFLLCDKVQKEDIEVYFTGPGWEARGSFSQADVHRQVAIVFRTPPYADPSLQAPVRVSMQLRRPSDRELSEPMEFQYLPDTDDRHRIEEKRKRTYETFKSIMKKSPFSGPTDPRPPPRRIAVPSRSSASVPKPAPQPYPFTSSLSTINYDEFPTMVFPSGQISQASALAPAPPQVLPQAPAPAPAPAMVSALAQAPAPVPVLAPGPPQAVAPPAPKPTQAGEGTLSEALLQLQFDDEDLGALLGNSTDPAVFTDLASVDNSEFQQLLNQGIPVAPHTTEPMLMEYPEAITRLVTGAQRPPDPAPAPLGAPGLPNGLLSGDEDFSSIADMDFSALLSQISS
In experiment [7] the target is cGMP-specific 3',5'-cyclic phosphodiesterase (Homo sapiens, UniProt O76074). Nature of the experiment: Inhibition of human recombinant PDE5A1 using FAM-cGMP as substrate incubated for 60 mins by fluorescence polarization method.
Experiment [8] deals with cGMP-inhibited 3',5'-cyclic phosphodiesterase 3A (Homo sapiens, UniProt Q14432). The experiment can be described thus: Inhibition of human recombinant PDE3A using FAM-cAMP as substrate incubated for 60 mins by fluorescence polarization method.
Sequence of cGMP-inhibited 3',5'-cyclic phosphodiesterase 3A (Q14432 whole entry): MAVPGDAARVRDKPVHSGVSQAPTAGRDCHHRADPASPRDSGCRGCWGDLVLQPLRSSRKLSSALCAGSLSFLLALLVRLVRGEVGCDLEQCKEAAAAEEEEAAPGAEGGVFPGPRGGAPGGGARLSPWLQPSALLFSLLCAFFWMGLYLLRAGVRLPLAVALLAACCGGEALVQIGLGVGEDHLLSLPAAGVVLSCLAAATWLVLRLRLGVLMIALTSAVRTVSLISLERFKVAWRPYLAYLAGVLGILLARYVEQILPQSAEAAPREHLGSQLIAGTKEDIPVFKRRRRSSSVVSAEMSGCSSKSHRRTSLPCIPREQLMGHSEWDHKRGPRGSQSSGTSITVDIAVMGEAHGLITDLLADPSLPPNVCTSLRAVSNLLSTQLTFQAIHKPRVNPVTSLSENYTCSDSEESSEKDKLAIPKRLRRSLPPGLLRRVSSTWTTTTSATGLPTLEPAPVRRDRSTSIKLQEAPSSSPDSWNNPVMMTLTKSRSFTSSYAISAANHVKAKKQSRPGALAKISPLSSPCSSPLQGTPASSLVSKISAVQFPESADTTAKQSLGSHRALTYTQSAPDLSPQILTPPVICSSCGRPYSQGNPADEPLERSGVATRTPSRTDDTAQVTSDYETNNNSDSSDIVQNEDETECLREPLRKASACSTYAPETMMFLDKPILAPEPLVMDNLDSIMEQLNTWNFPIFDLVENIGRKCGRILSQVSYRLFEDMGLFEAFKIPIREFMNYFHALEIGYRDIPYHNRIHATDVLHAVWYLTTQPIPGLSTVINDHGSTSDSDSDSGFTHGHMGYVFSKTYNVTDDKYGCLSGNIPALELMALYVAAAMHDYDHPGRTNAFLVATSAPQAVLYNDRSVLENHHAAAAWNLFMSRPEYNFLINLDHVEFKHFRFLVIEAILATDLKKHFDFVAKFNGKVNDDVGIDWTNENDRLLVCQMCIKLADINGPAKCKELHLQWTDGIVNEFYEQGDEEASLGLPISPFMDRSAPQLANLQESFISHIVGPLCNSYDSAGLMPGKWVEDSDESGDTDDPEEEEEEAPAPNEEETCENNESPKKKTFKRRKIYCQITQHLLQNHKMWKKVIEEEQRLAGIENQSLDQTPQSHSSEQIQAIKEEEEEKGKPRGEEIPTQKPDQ

T1 sequence (P22303 whole entry): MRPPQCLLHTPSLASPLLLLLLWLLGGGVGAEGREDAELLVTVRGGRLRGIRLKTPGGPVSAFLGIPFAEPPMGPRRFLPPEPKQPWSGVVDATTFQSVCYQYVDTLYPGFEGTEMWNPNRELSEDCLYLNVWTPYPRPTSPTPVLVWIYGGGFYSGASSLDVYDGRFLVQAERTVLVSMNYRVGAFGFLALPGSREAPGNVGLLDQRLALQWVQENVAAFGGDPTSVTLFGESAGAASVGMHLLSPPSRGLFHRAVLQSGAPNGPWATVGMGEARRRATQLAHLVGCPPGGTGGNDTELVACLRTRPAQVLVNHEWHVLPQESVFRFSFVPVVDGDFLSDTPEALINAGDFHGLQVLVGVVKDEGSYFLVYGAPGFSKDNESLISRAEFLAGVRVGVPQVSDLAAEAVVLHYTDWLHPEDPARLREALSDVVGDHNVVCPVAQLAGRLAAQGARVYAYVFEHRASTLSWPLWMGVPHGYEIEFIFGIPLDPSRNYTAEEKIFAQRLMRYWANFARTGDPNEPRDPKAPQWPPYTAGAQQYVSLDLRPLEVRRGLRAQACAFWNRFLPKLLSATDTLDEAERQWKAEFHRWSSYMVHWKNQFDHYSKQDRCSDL

Consider `O=c1cc(CCc2ccc(O)c(O)c2)oc2cc(O)cc(O)c12`, for which, in experiment [1], the inhibition is 91.2%.

Compound `COc1ccc(CCc2cc(=O)c3cc(O)cc(O)c3o2)cc1` yielded an IC50 against Mushroom tyrosinase of 51.5 µM.

In turn, `COc1ccc(CCc2cc(=O)c3cc4c(cc3o2)O[C@H]2c3c(oc(CCc5ccccc5)cc3=O)[C@H](O)[C@@H](O4)[C@@H]2O)cc1` registered an IC50 in the experiment with Bel-7402 of 44.7 µM.

Turning to `COc1ccc(CCc2cc(=O)c3cc(O)c(O)cc3o2)cc1`, the IC50 with K562, in the experiment with SGC-7901 and with Bel-7402 was 5.76 µM throughout.

For the compound `COc1ccc(CCc2cc(=O)c3c(o2)[C@H](Cl)[C@H](O)[C@H](O)[C@@H]3O)cc1`, half-maximal inhibition in the experiment on RAW264.7 (IC50) was put at 1.6 µM.

With `COc1ccc(CCc2cc(=O)c3c(o2)[C@H]2O[C@H]2[C@@H](O)[C@@H]3O)cc1O`, at Acetylcholinesterase [2], the inhibition was 17.5%.

For the compound `C=C(CO[C@H]1c2c(oc(CCc3ccccc3)cc2=O)[C@H]2O[C@H]2[C@H]1O)[C@@H]1CC[C@@]2(O)CCCC[C@@]2(C)C1`, the IC50 in the experiment with K562, in the experiment on SGC-7901, in the experiment with HeLa and with A549 [3] was 10.9 µM in each case.

With `COc1ccc(CCc2cc(=O)c3c(o2)[C@H]2O[C@H]2[C@@H](O)[C@H]3OC)cc1O`, the IC50 on Acetylcholinesterase [4] stood at 442 µM.

For the compound `O=c1cc(CCc2ccccc2)oc2c(O)cc(O)cc12`, in the experiment on Staphylococcus aureus, the IC50 worked out at 220 µM.

On Mushroom tyrosinase, `COc1ccc(CCc2cc(=O)c3cc(O)c(OC)cc3o2)cc1O` registered an IC50 of 89 µM.

Take `O=c1cc(CCc2ccccc2)oc2c(O)ccc(O)c12`: the IC50 with RAW264.7 amounted to 1.6 µM; in the experiment on Staphylococcus aureus, 220 µM.

In turn, `C=C(C)[C@H]1CC[C@@]2(C)CCCC(C(=O)O[C@H]3c4oc(CCc5ccccc5)cc(=O)c4[C@@H](O)[C@H](O)[C@@H]3O)=C2C1` gave an IC50 in the experiment with A549 [5] of 17.6 µM.

In the case of `COc1ccc(CCc2cc(=O)c3c(o2)[C@H](O)[C@H]2Oc4cc5oc(CCc6ccc(OC)cc6)cc(=O)c5cc4O[C@@H]3[C@H]2O)cc1`, the IC50 in the experiment on Bel-7402 was found to be 42.1 µM.

As for `O=c1cc(CCc2ccccc2)oc2c1[C@@H]1c3c(ccc4oc(CCc5ccccc5)cc(=O)c34)O[C@@H]([C@@H]1O)[C@H]2O`, the IC50 in the experiment on K562, in the experiment with SGC-7901, in the experiment with HeLa and with A549 [3] was 10.9 µM throughout.

On Acetylcholinesterase [2], `COc1ccc(CCc2cc(=O)c3c(o2)[C@@H]2O[C@@H]2[C@@H]2O[C@H]32)cc1O` came in with an inhibition of 17.5%.

`C/C1=C\CC/C(C(=O)O[C@@H]2c3oc(CCc4ccccc4)cc(=O)c3[C@H](O)[C@@H](O)[C@H]2O)=C/CC(C)(C)/C=C/C1` had an IC50 in the experiment on A549 [5] of 17.6 µM.

As to `COc1ccc2c(=O)cc(CCc3ccccc3)oc2c1`, the IC in experiment [6] amounted to 0.31 µM.

On to `COc1ccc(CCc2cc(=O)c3c(O)c(O)ccc3o2)cc1O`, for which the IC in [6] was 0.31 µM.

For `COc1ccc(CCc2cc(=O)c3c(o2)[C@H](Cl)[C@@H](O)[C@@H](O)[C@H]3O)cc1`, the IC50 in the experiment on RAW264.7 turned out to be 1.6 µM.

For the compound `O=c1cc(CCc2ccc(O)cc2)oc2cc(OC3O[C@H](CO)[C@@H](O)[C@H](O)[C@H]3O)cc(O)c12` (stereo partly drawn), the inhibition in experiment [1] was determined as 56.1%.

Turning to `O=c1cc(CCc2ccccc2)oc2c1[C@H](O)[C@H](O)[C@H](O)[C@H]2Cl`, in the experiment with RAW264.7, half-maximal inhibition (IC50) was put at 1.6 µM.

The compound `CO[C@@H]1c2c(oc(CCc3ccccc3)cc2=O)[C@H](O)[C@@H](O)[C@H]1O` came in with an inhibition on Acetylcholinesterase [2] of 17.5%.

The compound `COc1ccc(CCc2cc(=O)c3c(o2)[C@@H](O)[C@H](O)[C@@H]2O[C@H]32)cc1` displayed an IC50 in the experiment with RAW264.7 of 1.6 µM.

`COc1ccc(CCc2cc(=O)c3c(o2)[C@H]2O[C@H]2[C@@H](O)[C@H]3OC)cc1`: half-maximal inhibition against Acetylcholinesterase [4] (IC50) was put at 156 µM.

With `COc1ccc(CCc2cc(=O)c3c(O)ccc(OC)c3o2)cc1`, the IC50 in the experiment with Staphylococcus aureus stood at 220 µM.

Take `COc1ccc(CCc2cc(=O)c3c(o2)[C@@H](Oc2cc(O)cc4c(=O)cc(CCc5ccccc5)oc24)[C@H](O)[C@H](O)[C@H]3O)cc1`: the IC50 in experiment [7] came out at 7.9 µM.

Take `COc1ccc(CCc2cc(=O)c3c(o2)[C@H]2O[C@H]2[C@@H](O)[C@@H]3O)cc1`: the inhibition against Acetylcholinesterase [2] is 17.5%.

In turn, `COc1ccc(CCc2cc(=O)c3c(o2)[C@@H](O)[C@H](O)[C@H](O)[C@H]3OC)cc1` gave an inhibition at Acetylcholinesterase [2] of 17.5%.

`COc1cc2oc(CCc3ccccc3)cc(=O)c2cc1O`: in [6], the IC is 0.31 µM.

Consider `COc1ccc(CCc2cc(=O)c3cc(OC)c(OC)cc3o2)cc1`, for which the IC in experiment [6] came out at 0.31 µM.

Consider `COc1ccc(CCc2cc(=O)c3cc(OC)c(O)cc3o2)cc1`, for which, in the experiment on Staphylococcus aureus, the IC50 is 220 µM.

Take `C=C(CO[C@H]1c2c(oc(CCc3ccc(OC)cc3)cc2=O)[C@H]2O[C@H]2[C@H]1O)[C@@H]1CC[C@]2(C)CCC[C@H](C)[C@@]2(C)C1`: the IC50 in the experiment on K562, with SGC-7901, in the experiment with HeLa and in the experiment with A549 [3] was 10.9 µM in each case.

With `O=c1cc(CCc2ccc(O)cc2)oc2cc(O)cc(O)c12`, the inhibition in [1] is 56.1%.

Take `CCCOC(=O)c1cc(O)c(O)c(O)c1`: the inhibition in experiment [1] was 97.4%.

As for `COc1ccc(CCc2cc(=O)c3cc(O)c(OC)cc3o2)cc1`, the concentration for half-maximal inhibition (IC50) with K562, with SGC-7901 and in the experiment with Bel-7402 was 5.76 µM throughout.

For the compound `COc1cc(C[C@@H](O)c2cc(=O)c3c(O)cc(O)cc3o2)ccc1O`, the inhibition in experiment [1] worked out at 56.1%.

Turning to `O=c1cc(CCc2ccccc2)oc2c1[C@H](O)[C@@H](O)[C@@H](O)[C@@H]2Oc1cc2oc(CCc3ccccc3)cc(=O)c2cc1O`, in experiment [7], the IC50 was 4.2 µM.

In the case of `COc1ccc(CCc2cc(=O)c3cc(O)c(O[C@@H]4c5oc(CCc6ccccc6)cc(=O)c5[C@H](O)[C@@H](O)[C@H]4O)cc3o2)cc1`, in experiment [7], the half-maximal inhibitory concentration (IC50) was 4.3 µM.

As for `O=c1cc(CCc2ccccc2)oc2cc(O)c(O)cc12`, the IC50 in the experiment on K562, in the experiment on SGC-7901 and with Bel-7402 was 5.76 µM throughout.

In turn, `C=C(C)[C@H]1CC[C@@]2(C)CCC=C(C(=O)O[C@H]3c4oc(CCc5ccccc5)cc(=O)c4[C@@H](O)[C@H](O)[C@@H]3O)[C@H]2C1` registered an IC50 in the experiment with A549 [5] of 17.6 µM.

As to `O=C(CCc1ccccc1)O[C@@H]1c2oc(CCc3ccccc3)cc(=O)c2[C@H](O)[C@@H](O)[C@H]1O`, the IC50 is 15.1 µM in [7] and 42.6 µM in experiment [8].

As to `O=c1cc(CCc2ccccc2)oc2c1[C@H]1c3c(ccc4oc(CCc5ccccc5)cc(=O)c34)O[C@H]([C@H]1O)[C@@H]2O`, the IC50 in the experiment on K562, in the experiment on SGC-7901, in the experiment on HeLa and in the experiment on A549 [3] was 10.9 µM in each case.

On Acetylcholinesterase [2], `O=c1cc(CCc2ccccc2)oc2c1[C@H](O)[C@@H](O)[C@H]1O[C@@H]21` came in with an inhibition of 17.5%.

Source of the values: ChEMBL document CHEMBL5126554, “Occurrence, synthesis and biological activity of 2-(2-phenyethyl)chromones” (Eur J Med Chem, 2022).
